Measurements: US20160375042A1, “USE OF CAMPTOTHECIN DERIVATIVE IN PREPARING PHARMACEUTICAL USED FOR TREATING MULTIPLE MYELOMA” (priority 2014, published 2016)

system: S1 and S1-M1-80 (characteristic expression of ABCG2/BCRP); assay: Anti-drug resistance test (MTT, resistance index); assay type: cell-based; conditions: S1-M1-80 (ABCG2/BCRP) versus S1 cells, 72 h, from IC50
Method: Logarithmic growth phase S1 and S1-M1-80 (characteristic expression of ABCG2/BCRP) were prepared as cell suspension of 2.5×10^4 cells/ml and 6×10^4 cells/ml, and were seeded in into 96-well plates with 0.19 ml/well. After incubating in cell incubator for 24 hours at 37° C., 5% CO2, sample solutions in various concentrations were added at 0.01 ml/well. Stroke-physiological saline solution is used as control well. Each treatment is conducted in 3 parallel wells. The drugs were added and incubated additional 72 h hours. And 5 mg/ml of MTT is added at 0.02 ml/well before four hours of the end the incubation. The culture liquid is removed at the end of incubation. Each well was added 0.1 ml of DMSO and OD values were measured at wavelength of 540 nm and reference wavelength of 655 nm. The experiment was repeated three times. Equation 1 is used to calculate cell growth inhibition rate (IR); and Equation 2 is used to calculate resistance index. Bliss method is used to calculate the 50% inhibitory concentration (IC50).

Q: With `CC[C@@]1(O[PH](=O)[O-])C(=O)OCc2c1cc1n(c2=O)Cc2c-1nc1ccccc1c2/C=N/OC(C)(C)C.[Na+]` [WQ1114] as the compound, how does the Resistance index read?
A: Its Resistance index is 19.

Q: Which Resistance index does the source give for `CC[C@@]1(O[PH](=O)[O-])C(=O)OCc2c1cc1n(c2=O)Cc2c-1nc1ccccc1c2[Si](C)(C)C(C)(C)C.[Na+]` [WQ1116] here?
A: Its Resistance index is 13.

Q: For `CCc1c2c(nc3cc4c(cc13)OCO4)-c1cc3c(c(=O)n1C2)COC(=O)[C@@]3(CC)O[PH](=O)[O-].[Na+]` [WQ1105], which Resistance index is on record?
A: Its Resistance index is 20.

Q: For `CC[C@@]1(O[PH](=O)[O-])C(=O)OCc2c1cc1n(c2=O)Cc2cc3cc(C)ccc3nc2-1.[Na+]` [WQ1118], which Resistance index is on record?
A: Its Resistance index is 67.

Q: For `CC[C@@]1(O[PH](=O)[O-])C(=O)OCc2c1cc1n(c2=O)Cc2c-1nc1ccccc1c2CC[Si](C)(C)C.[Na+]` [WQ1115], which Resistance index is on record?
A: Its Resistance index is 25.

Q: With `CC[C@@]1(O[PH](=O)[O-])C(=O)OCc2c1cc1n(c2=O)Cc2cc3cc(Cl)ccc3nc2-1.[Na+]` [WQ1117] as the compound, how does the Resistance index read?
A: Its Resistance index is 9.

Q: Which Resistance index does the source give for `CCc1c2c(nc3ccc(C)cc13)-c1cc3c(c(=O)n1C2)COC(=O)[C@@]3(CC)O[PH](=O)[O-].[Na+]` [WQ1108] here?
A: The Resistance index was 38.

Q: For `CCc1c2c(nc3cc(F)c(F)cc13)-c1cc3c(c(=O)n1C2)COC(=O)[C@@]3(CC)O[PH](=O)[O-].[Na+]` [WQ1111], which Resistance index is on record?
A: The Resistance index was 7.

Q: With `CC[C@@]1(O)C(=O)OCc2c1cc1n(c2=O)Cc2cc3c(CN(C)C)c(O)ccc3nc2-1` [Topotecan, reference compound] as the compound, how does the Resistance index read?
A: The Resistance index was 210.

Q: Which Resistance index does the source give for `CC[C@@]1(O[PH](=O)[O-])C(=O)OCc2c1cc1n(c2=O)Cc2cc3cc4c(cc3nc2-1)OCCO4.[Na+]` [WQ1102] here?
A: Its Resistance index is 15.

Q: Which Resistance index does the source give for `CCc1c2c(nc3ccc(O)cc13)-c1cc3c(c(=O)n1C2)COC(=O)[C@]3(O)CC` [SN38, reference compound] here?
A: Its Resistance index is 290.

Q: Which Resistance index does the source give for `CC[C@@]1(O[PH](=O)[O-])C(=O)OCc2c1cc1n(c2=O)Cc2c-1nc1ccccc1c2OC.[Na+]` [WQ1122] here?
A: The Resistance index was 5.

system: human multiple myeloma cells NCI-H929 xenografts; assay: Tumor inhibitory effect on multiple myeloma cells NCI-H929 xenografts in nude mice; assay type: in vivo, BALB/c nude mouse; conditions: 2 mg/kg
Method: Multiple myeloma cells were routinely passaged in vitro, inoculated in 40 6-7-week-old BALB/c nude mouse, each mouse was subcutaneously injected human multiple myeloma cells NCI-H929 at its right axillary. Weighed after two days. The mice were randomly divided into five groups, eight in each group. Each group was dosed as follows: • i. physiological saline control group • ii. Topotecan positive control group, 2 mg/kg, once every 4 days, intraperitoneal injection • iii. WQ1001, high-dose group, 35 mg/kg, once every 4 days, intraperitoneal injection • iv. WQ1001, middle dose group, 25 mg/kg, once every 4 days, intraperitoneal injectionv. v. WQ1001, low dose group, 18 mg/kg, once every 4 days, intraperitoneal injection
Body weight(BW) as well as long diameter and short diameter of tumors were measured every two days. Tumor volume was calculated according to the Equation 1. On the 11th day after inoculation, the mice were weighed, long diameter and short diameter of tumors were measured, and relative tumor volume (RTV) was calculated according to Equation 2. Mice were sacrificed by cervical dislocation and the tumor mass was stripped and weighed. Inhibition rate (IR) was calculated according to the Equation 3. RTV and tumor weight (TW) for each group were analyzed through T-test.

Q: With `CC[C@@]1(O)C(=O)OCc2c1cc1n(c2=O)Cc2cc3c(CN(C)C)c(O)ccc3nc2-1` [Topotecan, reference compound] as the compound, how does the “anti-tumor effect on NCI-H929 xenografts in nude mice (in words)” value read?
A: The value was “no significant anti-tumor effect”.

same assay, conditions: Topotecan 2 mg/kg, once every 4 days, intraperitoneal; 11th day

Q: With `CC[C@@]1(O)C(=O)OCc2c1cc1n(c2=O)Cc2cc3c(CN(C)C)c(O)ccc3nc2-1` [Topotecan, reference compound] as the compound, how does the “IR By RTV %” value read?
A: The value was 37.3%.

Q: And the “IR By TW %” value?
A: Its value is 52.0%.

Q: What about the “RTV (X ± SD)” value of the same compound?
A: Its value is 25.3 ± 14.8.

Q: What about the “TW (X ± SD, g)” value of the same compound?
A: Its value is 0.71 ± 0.44 g.

same assay, conditions: Topotecan 2 mg/kg, once every 4 days, intraperitoneal; end (11th day after inoculation)

Q: Which “Bw (X ± SD, g) end” value does the source give for `CC[C@@]1(O)C(=O)OCc2c1cc1n(c2=O)Cc2cc3c(CN(C)C)c(O)ccc3nc2-1` [Topotecan, reference compound] here?
A: The value was 19.2 ± 1.3 g.

Q: What about the “TV (X ± SD, mm^3) End” value of the same compound?
A: The value was 1123.2 ± 608.9 mm^3.

same assay, conditions: Topotecan 2 mg/kg, once every 4 days, intraperitoneal; initial

Q: What does the source list for `CC[C@@]1(O)C(=O)OCc2c1cc1n(c2=O)Cc2cc3c(CN(C)C)c(O)ccc3nc2-1` [Topotecan, reference compound]?
A: Bw (X ± SD, g) initial: 17.2 ± 1.0 g; TV (X ± SD, mm^3) initial: 45.9 ± 6.0 mm^3

system: not listed separately; assay: Water-solubility test of compounds of Formula II and Formula IV; assay type: physicochemical; conditions: the C-20 phosphite salt (Formula II) itself, read-out: Water-solubility of Comp of Formula II

Q: Which solubility does the source give for `CCCc1ccc2nc3c(cc2c1)Cn1c-3cc2c(c1=O)COC(=O)[C@@]2(CC)O[PH](=O)[O-].[Na+]` [WQ1120] here?
A: The solubility was over 10000 µg/mL.

Q: Which solubility does the source give for `CC[C@@]1(O[PH](=O)[O-])C(=O)OCc2c1cc1n(c2=O)Cc2c-1nc1ccccc1c2/C=N/OC(C)(C)C.[Na+]` [WQ1114] here?
A: The solubility was over 10000 µg/mL.

Q: Which solubility does the source give for `CC[C@@]1(O[PH](=O)[O-])C(=O)OCc2c1cc1n(c2=O)Cc2c-1nc1ccccc1c2[Si](C)(C)C(C)(C)C.[Na+]` [WQ1116] here?
A: Its solubility is over 10000 µg/mL.

Q: For `CCc1ccc2nc3c(cc2c1OC)Cn1c-3cc2c(c1=O)COC(=O)[C@@]2(CC)O[PH](=O)[O-].[Na+]` [WQ1124], which solubility is on record?
A: Its solubility is over 10000 µg/mL.

Q: For `CCc1c2c(nc3cc4c(cc13)OCO4)-c1cc3c(c(=O)n1C2)COC(=O)[C@@]3(CC)O[PH](=O)[O-].[Na+]` [WQ1105], which solubility is on record?
A: The solubility was over 10000 µg/mL.

Q: With `CC[C@@]1(O[PH](=O)[O-])C(=O)OCc2c1cc1n(c2=O)Cc2c-1nc1ccc(C)cc1c2OC.[Na+]` [WQ1123] as the compound, how does the solubility read?
A: The solubility was over 10000 µg/mL.

Q: Which solubility does the source give for `CCc1ccc2nc3c(cc2c1)Cn1c-3cc2c(c1=O)COC(=O)[C@@]2(CC)O[PH](=O)[O-].[Na+]` [WQ1119] here?
A: The solubility was over 10000 µg/mL.

Q: Which solubility does the source give for `CC[C@@]1(O[PH](=O)[O-])C(=O)OCc2c1cc1n(c2=O)Cc2cc3cc(C)ccc3nc2-1.[Na+]` [WQ1118] here?
A: Its solubility is over 10000 µg/mL.

Q: Which solubility does the source give for `CCc1c2c(nc3ccc(Br)cc13)-c1cc3c(c(=O)n1C2)COC(=O)[C@@]3(CC)O[PH](=O)[O-].[Na+]` [WQ1110] here?
A: The solubility was over 10000 µg/mL.

Q: With `CCc1c2c(nc3cc(Cl)c(Cl)cc13)-c1cc3c(c(=O)n1C2)COC(=O)[C@@]3(CC)O[PH](=O)[O-].[Na+]` [WQ1113] as the compound, how does the solubility read?
A: The solubility was over 10000 µg/mL.

Q: With `CC[C@@]1(O[PH](=O)[O-])C(=O)OCc2c1cc1n(c2=O)Cc2c-1nc1ccccc1c2CC[Si](C)(C)C.[Na+]` [WQ1115] as the compound, how does the solubility read?
A: Its solubility is over 10000 µg/mL.

Q: Which solubility does the source give for `CCc1c2c(nc3ccccc13)-c1cc3c(c(=O)n1C2)COC(=O)[C@@]3(CC)O[PH](=O)[O-].[Na+]` [WQ1107] here?
A: The solubility was over 10000 µg/mL.

Q: With `CC[C@@]1(O[PH](=O)[O-])C(=O)OCc2c1cc1n(c2=O)Cc2cc3c(Cl)c4c(cc3nc2-1)OCO4.[Na+]` [WQ1106] as the compound, how does the solubility read?
A: Its solubility is over 10000 µg/mL.

Q: With `CCCCc1ccc2nc3c(c(OC)c2c1)Cn1c-3cc2c(c1=O)COC(=O)[C@@]2(CC)O[PH](=O)[O-].[Na+]` [WQ1126] as the compound, how does the solubility read?
A: Its solubility is over 10000 µg/mL.

Q: With `CCCCc1ccc2nc3c(cc2c1)Cn1c-3cc2c(c1=O)COC(=O)[C@@]2(CC)O[PH](=O)[O-].[Na+]` [WQ1121] as the compound, how does the solubility read?
A: The solubility was over 10000 µg/mL.

Q: Which solubility does the source give for `CC[C@@]1(O[PH](=O)[O-])C(=O)OCc2c1cc1n(c2=O)Cc2cc3cc4c(cc3nc2-1)OCO4.[Na+]` [WQ1104] here?
A: The solubility was over 10000 µg/mL.

Q: With `CC[C@@]1(O[PH](=O)[O-])C(=O)OCc2c1cc1n(c2=O)Cc2cc3cc(Cl)ccc3nc2-1.[Na+]` [WQ1117] as the compound, how does the solubility read?
A: Its solubility is over 10000 µg/mL.

Q: With `CCCc1ccc2nc3c(c(OC)c2c1)Cn1c-3cc2c(c1=O)COC(=O)[C@@]2(CC)O[PH](=O)[O-].[Na+]` [WQ1125] as the compound, how does the solubility read?
A: Its solubility is over 10000 µg/mL.

Q: With `CCc1c2c(nc3cc(F)c(C)cc13)-c1cc3c(c(=O)n1C2)COC(=O)[C@@]3(CC)O[PH](=O)[O-].[Na+]` [WQ1112] as the compound, how does the solubility read?
A: Its solubility is over 10000 µg/mL.

Q: For `CCc1c2c(nc3ccc(C)cc13)-c1cc3c(c(=O)n1C2)COC(=O)[C@@]3(CC)O[PH](=O)[O-].[Na+]` [WQ1108], which solubility is on record?
A: Its solubility is over 10000 µg/mL.

Q: For `CCc1c2c(nc3cc4c(cc13)OCCO4)-c1cc3c(c(=O)n1C2)COC(=O)[C@@]3(CC)O[PH](=O)[O-].[Na+]` [WQ1103], which solubility is on record?
A: Its solubility is over 10000 µg/mL.

Q: For `CCc1c2c(nc3cc(F)c(F)cc13)-c1cc3c(c(=O)n1C2)COC(=O)[C@@]3(CC)O[PH](=O)[O-].[Na+]` [WQ1111], which solubility is on record?
A: Its solubility is over 10000 µg/mL.

Q: For `CC[C@@]1(O[PH](=O)[O-])C(=O)OCc2c1cc1n(c2=O)Cc2cc3cc4c(cc3nc2-1)OCCO4.[Na+]` [WQ1102], which solubility is on record?
A: Its solubility is over 10000 µg/mL.

Q: For `CC[C@@]1(O[PH](=O)[O-])C(=O)OCc2c1cc1n(c2=O)Cc2c-1nc1ccccc1c2OC.[Na+]` [WQ1122], which solubility is on record?
A: The solubility was over 10000 µg/mL.

Q: Which solubility does the source give for `CCc1c2c(nc3ccc(Cl)cc13)-c1cc3c(c(=O)n1C2)COC(=O)[C@@]3(CC)O[PH](=O)[O-].[Na+]` [WQ1109] here?
A: Its solubility is over 10000 µg/mL.
